Reference: ChEMBL document CHEMBL3875175, “Multi-targeting exploration of new 2-aminothiazolyl quinolones: Synthesis, antimicrobial evaluation, interaction with DNA, combination with topoisomerase IV and penetrability into cells” (Eur J Med Chem, 2016)
In brackets after ≈: the same amount, converted by molar mass.

Key:
Staphylococcus aureus [1] = test: Antibacterial activity against methicillin-resistant Staphylococcus aureus N315 after 24 hrs by two fold serial dilution method; type: functional; conditions: N315, 24 h
Proteus vulgaris = test: Antibacterial activity against Bacillus proteus ATCC 13315 after 24 hrs by two fold serial dilution method; type: functional; conditions: ATCC 13315, 24 h
Aspergillus flavus = test: Antifungal activity against Aspergillus flavus after 24 hrs by two fold serial dilution method; type: functional
Pseudomonas aeruginosa = test: Antibacterial activity against Pseudomonas aeruginosa ATCC 27853 after 24 hrs by two fold serial dilution method; type: functional; conditions: ATCC 27853, 24 h
[2] = Antifungal activity against Candida mycoderma after 24 hrs by two fold serial dilution method; type: functional; conditions: Pichia norvegensis
Escherichia coli [3] = test: Antibacterial activity against Escherichia coli JM109 after 24 hrs by two fold serial dilution method; type: functional; conditions: JM109, 24 h
Staphylococcus aureus [4] = test: Antibacterial activity against Staphylococcus aureus ATCC 25923 after 24 hrs by two fold serial dilution method; type: functional; conditions: ATCC 25923, 24 h
Candida albicans = test: Antifungal activity against Candida albicans ATCC 76615 after 24 hrs by two fold serial dilution method; type: functional; conditions: ATCC 76615, 24 h
[5] = Antifungal activity against Candida utilis after 24 hrs by two fold serial dilution method; type: functional; conditions: Cyberlindnera jadinii
Micrococcus luteus = test: Antibacterial activity against Micrococcus luteus ATCC 4698 after 24 hrs by two fold serial dilution method; type: functional; conditions: NCTC 2665, 24 h
Bacillus spizizenii = test: Antibacterial activity against Bacillus subtilis ATCC 6633 after 24 hrs by two fold serial dilution method; type: functional; conditions: ATCC 6633, 24 h
Escherichia coli [6] = test: Antibacterial activity against Escherichia coli DH52 after 24 hrs by two fold serial dilution method; type: functional; conditions: DH52, 24 h
Saccharomyces cerevisiae = test: Antifungal activity against Beer yeast after 24 hrs by two fold serial dilution method; type: functional
Salmonella typhi = test: Antibacterial activity against Bacillus typhi after 24 hrs by two fold serial dilution method; type: functional, Salmonella enterica subsp. enterica serovar Typhi; conditions: Salmonella enterica
Shigella dysenteriae = test: Antibacterial activity against Shigella dysenteriae after 24 hrs by two fold serial dilution method; type: functional

Structure (SMILES) | MIC (Staphylococcus aureus [1]) [µg/mL] | MIC (Proteus vulgaris) [µg/mL] | MIC80 (Aspergillus flavus) [µg/mL] | MIC (Pseudomonas aeruginosa) [µg/mL] | MIC80 [2] [µg/mL] | MIC (Escherichia coli [3]) [µg/mL] | MIC (Staphylococcus aureus [4]) [µg/mL] | MIC80 (Candida albicans) [µg/mL] | MIC80 [5] [µg/mL] | MIC (Micrococcus luteus) [µg/mL] | MIC (Bacillus spizizenii) [µg/mL] | MIC (Escherichia coli [6]) [µg/mL] | MIC80 (Saccharomyces cerevisiae) [µg/mL] | MIC (Salmonella typhi) [µg/mL] | MIC (Shigella dysenteriae) [µg/mL]
CCCCCCCCCCCCn1cc(-c2cnc(N)s2)c(=O)c2cc(F)cc(F)c21 | 128 (≈ 286 µM) | 256 (≈ 572 µM) | 256 (≈ 572 µM) | 32 (≈ 71.5 µM) | 32 (≈ 71.5 µM) | 128 (≈ 286 µM) | 512 (≈ 1140 µM) | 128 (≈ 286 µM) | 64 (≈ 143 µM) | 128 (≈ 286 µM) | 64 (≈ 143 µM) | 256 (≈ 572 µM) | 128 (≈ 286 µM) | 64 (≈ 143 µM) | 128 (≈ 286 µM)
Nc1ncc(-c2cn(Cc3ccccc3F)c3c(F)cc(F)cc3c2=O)s1 | 64 (≈ 165 µM) | 128 (≈ 330 µM) | 32 (≈ 82.6 µM) | 128 (≈ 330 µM) | 64 (≈ 165 µM) | 64 (≈ 165 µM) | 32 (≈ 82.6 µM) | 64 (≈ 165 µM) | 128 (≈ 330 µM) | 64 (≈ 165 µM) | 64 (≈ 165 µM) | 64 (≈ 165 µM) | 64 (≈ 165 µM) | 8 (≈ 20.7 µM) | 32 (≈ 82.6 µM)
COc1ccc(Cn2cc(-c3cnc(N)s3)c(=O)c3cc(F)cc(F)c32)cc1 | 256 (≈ 641 µM) | 256 (≈ 641 µM) | 64 (≈ 160 µM) | 64 (≈ 160 µM) | 256 (≈ 641 µM) | 128 (≈ 320 µM) | 256 (≈ 641 µM) | 256 (≈ 641 µM) | 512 (≈ 1280 µM) | 64 (≈ 160 µM) | 128 (≈ 320 µM) | 64 (≈ 160 µM) | 64 (≈ 160 µM) | 64 (≈ 160 µM) | 128 (≈ 320 µM)
CCCCCCCCCCn1cc(-c2cnc(N)s2)c(=O)c2cc(F)cc(F)c21 | 256 (≈ 610 µM) | 128 (≈ 305 µM) | 64 (≈ 153 µM) | 64 (≈ 153 µM) | 64 (≈ 153 µM) | 64 (≈ 153 µM) | 512 (≈ 1220 µM) | 64 (≈ 153 µM) | 128 (≈ 305 µM) | 128 (≈ 305 µM) | 256 (≈ 610 µM) | 64 (≈ 153 µM) | 64 (≈ 153 µM) | 256 (≈ 610 µM) | 64 (≈ 153 µM)
Nc1ncc(-c2cn(Cc3cccc(F)c3)c3c(F)cc(F)cc3c2=O)s1 | 32 (≈ 82.6 µM) | 32 (≈ 82.6 µM) | 64 (≈ 165 µM) | 64 (≈ 165 µM) | 32 (≈ 82.6 µM) | 128 (≈ 330 µM) | 64 (≈ 165 µM) | 64 (≈ 165 µM) | 64 (≈ 165 µM) | 128 (≈ 330 µM) | 128 (≈ 330 µM) | 128 (≈ 330 µM) | 64 (≈ 165 µM) | 32 (≈ 82.6 µM) | 64 (≈ 165 µM)
O=C(N[C@H](CO)[C@H](O)c1ccc([N+](=O)[O-])cc1)C(Cl)Cl [CHLORAMPHENICOL] | 16 (≈ 49.5 µM) | 32 (≈ 99 µM) |  | 32 (≈ 99 µM) |  | 32 (≈ 99 µM) | 16 (≈ 49.5 µM) |  |  | 8 (≈ 24.8 µM) | 32 (≈ 99 µM) | 32 (≈ 99 µM) |  | 32 (≈ 99 µM) | 16 (≈ 49.5 µM)
CCn1cc(C(=O)O)c(=O)c2cc(F)c(N3CCNCC3)cc21 [NORFLOXACIN] | 8 (≈ 25.1 µM) | 8 (≈ 25.1 µM) |  | 16 (≈ 50.1 µM) |  | 1 (≈ 3.13 µM) | 2 (≈ 6.26 µM) |  |  | 2 (≈ 6.26 µM) | 4 (≈ 12.5 µM) | 1 (≈ 3.13 µM) |  | 4 (≈ 12.5 µM) | 16 (≈ 50.1 µM)
Nc1ncc(-c2cn(Cc3ccc([N+](=O)[O-])cc3)c3c(F)cc(F)cc3c2=O)s1 | 128 (≈ 309 µM) | 128 (≈ 309 µM) | 64 (≈ 154 µM) | 64 (≈ 154 µM) | 128 (≈ 309 µM) | 128 (≈ 309 µM) | 256 (≈ 618 µM) | 32 (≈ 77.2 µM) | 256 (≈ 618 µM) | 128 (≈ 309 µM) | 128 (≈ 309 µM) | 32 (≈ 77.2 µM) | 64 (≈ 154 µM) | 64 (≈ 154 µM) | 256 (≈ 618 µM)
